Reference: PubChem BioAssay AID330 (DTP/NCI, 2004)
Where “and” joins values, the source holds several entries; their conditions need not be identical. Equal entries are not always repeated. Inconclusive results and toxic doses are left out. How the source made its calls: active means survival T/C of 150% or more; inactive means T/C below 125% in these data.

Test system: P388 leukemia ip, CD2F1 mice, survival T/C
Test: NCI In Vivo Anticancer Drug Screen. Data for tumor model P388 Leukemia (intraperitoneal) in CD2F1 (CDF1) mice
Details: endpoint: median survival time, higher = longer survival
Procedure, shortened: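 Mice carrying the transplanted tumor received test compound or vehicle. Survival was recorded in each group, and the value is the treated-group measurement divided by that of the vehicle-treated control group.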

[1] = dose: 12.5 mg/kg/injection, schedule: Q01DX005 (ip), vehicle: saline with Tween-80
[2] = dose: 25.0 mg/kg/injection, schedule: Q01DX005 (ip), vehicle: saline with Tween-80
[3] = dose: 50.0 mg/kg/injection, schedule: Q01DX005 (ip), vehicle: saline with Tween-80
[4] = dose: 50.0 mg/kg/injection, schedule: Q01DX005 (ip), vehicle: Klucel (hydroxypropylcellulose) (HPC)
[5] = dose: 100.0 mg/kg/injection, schedule: Q01DX005 (ip), vehicle: Klucel (hydroxypropylcellulose) (HPC)
[6] = dose: 200.0 mg/kg/injection, schedule: Q01DX005 (ip), vehicle: Klucel (hydroxypropylcellulose) (HPC)

Measured: T/C

CC1(C)N=C(N)N=C(N)N1c1ccc(CCc2ccccc2)c(Cl)c1
inactive: dose: 4.1 mg/kg/injection, schedule: Q01DX009 (ip), vehicle: saline with Tween-80 118 % of control | dose: 6.25 mg/kg/injection, schedule: Q04DX003 (ip), vehicle: saline sonified 113 % of control | dose: 9.3 mg/kg/injection, schedule: Q01DX009 (ip), vehicle: saline with Tween-80 118 % of control | dose: 12.5 mg/kg/injection, schedule: Q04DX003 (ip), vehicle: saline sonified 104 % of control | dose: 25.0 mg/kg/injection, schedule: Q04DX003 (ip), vehicle: saline sonified 100 % of control

C1CCC2[N-]CC3CCCCC3[N-]CC3CCCCC3[N-]CC3CCCCC3[N-]CC2C1.[Cu] (stereo unspecified)
inactive: dose: 0.39 mg/kg/injection, schedule: Q01DX009 (ip), vehicle: saline 105 % of control | dose: 0.78 mg/kg/injection, schedule: Q01DX009 (ip), vehicle: Klucel (hydroxypropylcellulose) (HPC) 121 % of control | dose: 0.78 mg/kg/injection, schedule: Q01DX009 (ip), vehicle: saline 123 % of control | dose: 1.56 mg/kg/injection, schedule: Q01DX009 (ip), vehicle: saline 123 % of control | dose: 1.56 mg/kg/injection, schedule: Q01DX009 (oral), vehicle: Klucel (hydroxypropylcellulose) (HPC) 89 % of control | dose: 3.12 mg/kg/injection, schedule: Q01DX009 (oral), vehicle: Klucel (hydroxypropylcellulose) (HPC) 99 % of control | dose: 6.25 mg/kg/injection, schedule: Q01DX009 (oral), vehicle: Klucel (hydroxypropylcellulose) (HPC) 99 % of control | dose: 12.5 mg/kg/injection, schedule: Q01DX009 (ip), vehicle: Klucel (hydroxypropylcellulose) (HPC) 119 % of control | dose: 12.5 mg/kg/injection, schedule: Q01DX009 (oral), vehicle: Klucel (hydroxypropylcellulose) (HPC) 93 % of control and 98 % of control | dose: 25.0 mg/kg/injection, schedule: Q01DX009 (oral), vehicle: Klucel (hydroxypropylcellulose) (HPC) 106 % of control and 91 % of control | dose: 50.0 mg/kg/injection, schedule: Q01DX009 (oral), vehicle: Klucel (hydroxypropylcellulose) (HPC) 93 % of control | dose: 100.0 mg/kg/injection, schedule: Q01DX009 (oral), vehicle: Klucel (hydroxypropylcellulose) (HPC) 93 % of control and 98 % of control | dose: 200.0 mg/kg/injection, schedule: Q01DX009 (oral), vehicle: Klucel (hydroxypropylcellulose) (HPC) 88 % of control

Cc1ccc(NCCN2CCN(CCNc3ccc(C)c4sc5ccccc5c(=O)c34)CC2)c2c(=O)c3ccccc3sc12
inactive: dose: 6.25 mg/kg/injection, schedule: Q01DX005 (ip), vehicle: saline with Tween-80 106 % of control | [1] 98 % of control | [2] 105 % of control | [3] 97 % of control

COC(=O)C1(OC(C)=O)C(=O)NC2=C1C(=O)c1ccccc1C2=O (stereo unspecified)
inactive: [1] 102 % of control | [2] 104 % of control | [3] 110 % of control and 113 % of control

CC(=O)N(c1ccccc1)c1ccccc1[N+](=O)[O-]
inactive: dose: 50.0 mg/kg/injection, schedule: Q01DX009 (ip), vehicle: saline 87 % of control | dose: 100.0 mg/kg/injection, schedule: Q01DX009 (ip), vehicle: saline 86 % of control | dose: 200.0 mg/kg/injection, schedule: Q01DX009 (ip), vehicle: saline 86 % of control

Cc1nn(-c2ccccc2)c2c1c(=O)c1ccccc1c(=O)n2C
inactive: [4] 105 % of control | [5] 104 % of control | [6] 94 % of control

O=C(CCl)Nc1nccs1
inactive: dose: 12.5 mg/kg/injection, schedule: Q01DX009 (ip), vehicle: saline with Tween-80 111 % of control | dose: 25.0 mg/kg/injection, schedule: Q01DX009 (ip), vehicle: saline with Tween-80 112 % of control | dose: 50.0 mg/kg/injection, schedule: Q01DX009 (ip), vehicle: saline with Tween-80 103 % of control | dose: 100.0 mg/kg/injection, schedule: Q01DX009 (ip), vehicle: saline with Tween-80 116 % of control

NC(=O)/C(N=Nc1ccccc1C(=O)O)=N\Nc1ccccc1C(=O)O
inactive: [4] 94 % of control | [5] 95 % of control | [6] 103 % of control

CC(C)N=C1NS(=O)(=O)c2ccccc21
inactive: [3] 114 % of control | dose: 100.0 mg/kg/injection, schedule: Q01DX005 (ip), vehicle: saline with Tween-80 97 % of control | dose: 200.0 mg/kg/injection, schedule: Q01DX005 (ip), vehicle: saline with Tween-80 108 % of control
